How the values were obtained:
[1] = target: T1, CDK1 (Homo sapiens, UniProt P06493); assay: CDK-1 kinase screening assay (33P-ATP FlashPlate); type: biochemical; conditions: human CDK1 with cyclin B; 10 μM ATP; 1 hr at 30° C
T1 construct: purchased New England Biolabs, Beverly, Mass; 6020; host or cells: insect cells

[2] = target: T2, VEGF-R2 (Rattus norvegicus, UniProt O08775); assay: VEGF-R2 kinase screening assay (33P-ATP FlashPlate); type: biochemical; conditions: rat VEGF-R2 kinase domain; 10 μM ATP; 1 hr at 30° C;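 also: Read-out is ³³P incorporation from ³³P-γ-ATP into biotinylated peptide substrate captured on streptavidin FlashPlate, counted by scintillation, 1% DMSO final, inhibition scaled between per-plate maximum and minimum signals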
T2 construct: polyhistidine (N)

[3] = target: T3, HER2 (Homo sapiens, UniProt P04626); assay: HER2 kinase screening assay (33P-ATP FlashPlate); type: biochemical; conditions: GST-HIS6 HER-2 aa 679 to 1255; 10 μM ATP; 1 hr at 30° C;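 also: Biotin-poly(GT) 4:1 peptide captured on streptavidin FlashPlate, 33P transfer from γ-ATP read by scintillation counting, lower incorporation means inhibition, 1% DMSO final, 100 µL reaction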
T3 construct: GST (Glutathione-S-Transferase) (N); HIS6 (N); thrombin cleavage site (N); purchased Proqinase, Freiburg, Germany

[4] = target: T4, Aurora-A (Mus musculus, UniProt P97477); assay: Aurora-A kinase screening assay (33P-ATP FlashPlate); type: biochemical; conditions: 10 μM ATP, 1 hr at 30° C;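 also: His-tagged mouse Aurora-A phosphorylating a biotinylated peptide captured on streptavidin plates, read as 33P uptake by scintillation counting, 1% DMSO, inhibition scaled between per-plate maximum and minimum signals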
T4 construct: polyhistidine (N)
T4 sequence (P97477 1-395): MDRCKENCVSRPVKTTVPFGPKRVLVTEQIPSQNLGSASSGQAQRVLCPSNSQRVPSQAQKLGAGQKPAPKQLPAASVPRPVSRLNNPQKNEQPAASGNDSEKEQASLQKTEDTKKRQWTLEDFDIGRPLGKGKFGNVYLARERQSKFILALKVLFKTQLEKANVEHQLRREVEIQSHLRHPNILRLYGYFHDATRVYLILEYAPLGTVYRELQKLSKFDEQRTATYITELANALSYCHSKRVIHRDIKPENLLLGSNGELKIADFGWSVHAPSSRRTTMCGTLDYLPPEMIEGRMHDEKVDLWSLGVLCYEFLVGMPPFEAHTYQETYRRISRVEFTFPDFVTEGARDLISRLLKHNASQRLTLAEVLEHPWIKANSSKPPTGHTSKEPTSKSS

[5] = tested on: HeLa cervical adenocarcinoma; assay: Cell Proliferation Inhibition Assay (14C-thymidine incorporation), HeLa; type: cell-based; conditions: Homo sapiens, HeLa, HeLa cells;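 also: test compound in DMSO added to cells seeded in scintillating 96-well plates, DMSO-only wells as control, uptake of methyl 14C-thymidine into new DNA counted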
[6] = tested on: A375 malignant melanoma; assay: Cell Proliferation Inhibition Assay (14C-thymidine incorporation), A375; type: cell-based; conditions: Homo sapiens, A-375, A375 cells;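 also: proliferation measured by radiolabelled thymidine uptake into new DNA, counted in scintillating 96-well plates, compound-treated wells compared with DMSO-only control wells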
[7] = tested on: HCT-116 colon carcinoma; assay: Cell Proliferation Inhibition Assay (14C-thymidine incorporation), HCT-116; type: cell-based; conditions: Homo sapiens, HCT-116, HCT-116 cells;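 also: proliferation measured as methyl 14C-thymidine uptake into new DNA, counted in 96-well scintillating microplates, compared with DMSO-only control wells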
[8] = tested on: Human melanoma A375 cells; assay: In Vivo Models - Inhibition of Tumor Growth (A375 xenograft); conditions: female athymic mice, 25 mg/kg i.p. daily
Procedure: The ability of test compounds to inhibit unregulated growth of human tumor cells in vivo was evaluated by implanting human tumor cells into the hindflank of athymic mice, administering a test compound and then quantifying any change in tumor size.
Certain compounds at particular doses produced adverse effects in this model. One skilled in the art would be able to establish the effective amount of compound required to achieve an effective therapeutic window.
Human melanoma A375 cells were implanted subcutaneously into the hindflank of female athymic mice (Charles River) and allowed to grow for 6-10 days. After a measurable tumor was established (as determined by baseline caliper measurement), the animal was administered an intraperitoneal (i.p.) dose of the test compound daily at 25 mg/kg for the length of the study. Tumor size was measured at certain intervals as shown in Table 5 and the degree of inhibition for a test compound was determined by comparing the reduction in tumor volume for drug-treated animals to that of untreated and vehicle-treated animals. The vehicle used was 20% hydroxypropyl β-cyclodextran.

[9] = target: T5, c-Src kinase (Homo sapiens, UniProt P12931); assay: c-Src Kinase Assay; type: biochemical; conditions: 5 μM ATP
T5 construct: purchased Upstate Biotechnology, Lake Placid, N.Y
Procedure, shortened: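 Human c-Src phosphorylated Cdc2 peptide (100 μM) […]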

[10] = target: T6, Lyn kinase (Homo sapiens, UniProt P07948); assay: Lyn Kinase Assay; type: biochemical; conditions: 5 μM ATP
T6 construct: purchased Upstate Biotechnology, Lake Placid, N.Y
Procedure, shortened: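 Recombinant human Lyn kinase in pH 7.5 Tris buffer with EGTA, vanadate, β-mercaptoethanol and BSA reacted with compound for 40 min at 30° C. The radiolabelled product was captured on P30 filtermats after phosphoric acid stop and counted by scintillation. IC50 came from percent inhibition versus log concentration, using plate maximum/minimum signals.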

[11] = target: T7, RET (Homo sapiens, UniProt P07949); assay: RET kinase screening assay (33P-ATP FlashPlate); type: biochemical; conditions: human RET kinase domain; 10 μM ATP; 1 hr at 30° C;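 also: biotinylated peptide substrate captured on streptavidin FlashPlate, 33P phosphate transfer read by scintillation counting, 1% DMSO, lower incorporation means inhibition, percent relative to per-plate maximum and minimum signals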
T7 construct: polyhistidine (N)
T7 sequence (P07949 658-1114 limits assumed): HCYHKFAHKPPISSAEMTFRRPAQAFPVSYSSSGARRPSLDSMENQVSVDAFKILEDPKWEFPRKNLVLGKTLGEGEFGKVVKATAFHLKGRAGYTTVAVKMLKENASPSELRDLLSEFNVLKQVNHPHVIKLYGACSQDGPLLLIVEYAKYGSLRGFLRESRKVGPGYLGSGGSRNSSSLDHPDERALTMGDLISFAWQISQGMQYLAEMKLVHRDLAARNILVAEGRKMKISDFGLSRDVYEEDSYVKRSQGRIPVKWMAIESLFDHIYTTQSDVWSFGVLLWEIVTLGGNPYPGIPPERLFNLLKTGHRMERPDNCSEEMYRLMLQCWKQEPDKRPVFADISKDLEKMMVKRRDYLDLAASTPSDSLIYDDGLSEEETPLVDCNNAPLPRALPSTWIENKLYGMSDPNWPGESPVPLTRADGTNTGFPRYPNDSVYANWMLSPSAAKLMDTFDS

T6 sequence (P07948 whole entry): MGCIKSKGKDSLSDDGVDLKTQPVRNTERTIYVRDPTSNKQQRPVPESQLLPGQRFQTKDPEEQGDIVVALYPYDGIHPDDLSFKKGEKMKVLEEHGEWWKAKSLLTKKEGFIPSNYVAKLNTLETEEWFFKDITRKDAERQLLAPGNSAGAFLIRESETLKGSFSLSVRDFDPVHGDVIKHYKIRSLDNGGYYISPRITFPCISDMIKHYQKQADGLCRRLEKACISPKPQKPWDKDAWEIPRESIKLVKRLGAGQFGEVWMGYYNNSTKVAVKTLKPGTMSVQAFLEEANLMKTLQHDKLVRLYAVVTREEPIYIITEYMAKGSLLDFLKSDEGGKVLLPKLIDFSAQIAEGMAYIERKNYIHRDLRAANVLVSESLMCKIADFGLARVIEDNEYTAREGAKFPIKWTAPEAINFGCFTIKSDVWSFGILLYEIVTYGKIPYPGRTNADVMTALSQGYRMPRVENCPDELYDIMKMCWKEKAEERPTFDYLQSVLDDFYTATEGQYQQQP
T1 sequence (P06493 whole entry): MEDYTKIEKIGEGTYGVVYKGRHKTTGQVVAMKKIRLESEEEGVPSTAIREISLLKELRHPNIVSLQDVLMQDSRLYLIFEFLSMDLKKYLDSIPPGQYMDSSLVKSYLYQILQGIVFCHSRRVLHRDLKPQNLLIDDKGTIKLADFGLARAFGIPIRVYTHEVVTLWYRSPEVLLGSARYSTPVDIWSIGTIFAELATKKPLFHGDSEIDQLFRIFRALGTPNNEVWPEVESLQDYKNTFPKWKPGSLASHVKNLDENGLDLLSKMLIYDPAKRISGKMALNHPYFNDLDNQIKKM
T1 sequence (P14635 whole entry partner): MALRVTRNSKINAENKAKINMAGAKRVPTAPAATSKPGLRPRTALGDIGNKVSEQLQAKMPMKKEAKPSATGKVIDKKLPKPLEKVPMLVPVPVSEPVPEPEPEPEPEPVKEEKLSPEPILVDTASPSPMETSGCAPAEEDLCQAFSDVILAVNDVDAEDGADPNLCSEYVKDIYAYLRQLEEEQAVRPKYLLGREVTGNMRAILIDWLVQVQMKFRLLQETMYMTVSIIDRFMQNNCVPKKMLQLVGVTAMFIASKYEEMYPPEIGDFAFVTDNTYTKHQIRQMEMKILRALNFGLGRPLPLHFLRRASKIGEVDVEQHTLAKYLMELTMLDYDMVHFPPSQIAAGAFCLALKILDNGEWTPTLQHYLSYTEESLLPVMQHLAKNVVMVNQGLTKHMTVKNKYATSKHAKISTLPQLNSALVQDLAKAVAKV
T3 sequence (P04626 679-1255): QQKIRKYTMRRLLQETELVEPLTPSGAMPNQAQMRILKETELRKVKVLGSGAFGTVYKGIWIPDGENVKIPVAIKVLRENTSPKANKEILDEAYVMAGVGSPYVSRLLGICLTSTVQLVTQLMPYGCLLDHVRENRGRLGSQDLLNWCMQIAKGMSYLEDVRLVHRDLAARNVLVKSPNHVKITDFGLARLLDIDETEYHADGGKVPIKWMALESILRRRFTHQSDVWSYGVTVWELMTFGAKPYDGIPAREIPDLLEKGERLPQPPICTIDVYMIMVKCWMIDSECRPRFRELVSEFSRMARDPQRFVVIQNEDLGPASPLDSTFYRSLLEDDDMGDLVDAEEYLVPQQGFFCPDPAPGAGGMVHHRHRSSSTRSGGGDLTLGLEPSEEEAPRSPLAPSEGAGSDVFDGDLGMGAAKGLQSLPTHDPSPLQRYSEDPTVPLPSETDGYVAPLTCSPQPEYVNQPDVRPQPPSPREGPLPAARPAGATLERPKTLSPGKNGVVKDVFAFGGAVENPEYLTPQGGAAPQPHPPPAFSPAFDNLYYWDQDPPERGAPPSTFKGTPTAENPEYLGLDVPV
T2 sequence (O08775 786-1343): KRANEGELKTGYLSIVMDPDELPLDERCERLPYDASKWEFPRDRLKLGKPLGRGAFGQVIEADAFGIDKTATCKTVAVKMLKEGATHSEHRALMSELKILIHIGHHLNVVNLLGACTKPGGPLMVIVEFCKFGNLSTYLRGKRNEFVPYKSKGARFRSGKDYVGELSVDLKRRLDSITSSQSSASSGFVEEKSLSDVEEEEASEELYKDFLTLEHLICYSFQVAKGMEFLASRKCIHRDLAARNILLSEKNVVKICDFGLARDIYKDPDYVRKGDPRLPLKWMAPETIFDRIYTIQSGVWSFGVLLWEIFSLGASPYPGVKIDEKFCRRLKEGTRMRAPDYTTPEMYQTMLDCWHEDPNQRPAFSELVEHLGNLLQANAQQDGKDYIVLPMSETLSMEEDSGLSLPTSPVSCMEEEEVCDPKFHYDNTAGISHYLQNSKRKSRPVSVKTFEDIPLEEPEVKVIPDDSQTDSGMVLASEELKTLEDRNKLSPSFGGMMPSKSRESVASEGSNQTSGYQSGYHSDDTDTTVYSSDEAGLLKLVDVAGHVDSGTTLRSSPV
T5 sequence (P12931 whole entry): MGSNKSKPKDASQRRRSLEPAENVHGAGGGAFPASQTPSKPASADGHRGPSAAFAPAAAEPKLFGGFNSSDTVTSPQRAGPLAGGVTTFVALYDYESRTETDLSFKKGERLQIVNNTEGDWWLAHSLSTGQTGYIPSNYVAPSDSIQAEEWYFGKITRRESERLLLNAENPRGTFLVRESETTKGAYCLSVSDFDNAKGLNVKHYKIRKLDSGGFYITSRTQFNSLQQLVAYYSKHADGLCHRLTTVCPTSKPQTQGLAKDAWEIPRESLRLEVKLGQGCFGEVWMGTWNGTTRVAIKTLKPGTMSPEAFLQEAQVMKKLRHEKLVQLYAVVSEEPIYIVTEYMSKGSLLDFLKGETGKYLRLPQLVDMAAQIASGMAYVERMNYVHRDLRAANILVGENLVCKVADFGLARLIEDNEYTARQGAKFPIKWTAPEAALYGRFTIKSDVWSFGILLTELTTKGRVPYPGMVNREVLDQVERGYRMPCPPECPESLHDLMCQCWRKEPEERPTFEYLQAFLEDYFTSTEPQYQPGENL

IC50 [1] | IC50 [2] | IC50 [3] | IC50 [4] | IC50 [5] | IC50 [6] | IC50 [7] | IC50 [9] | IC50 [10] | IC50 [11] | Compound | Tumor volume ([8]; Day 1) | Tumor volume ([8]; Day 4) | Tumor volume ([8]; Day 8) | Tumor volume ([8]; Day 11) | Tumor volume ([8]; Day 14)
0.7 nM | 154 nM | 5120 nM | 803 nM | 58.6 nM | 51.2 nM | 93.7 nM |  |  |  | CCNCc1cncc(-c2cnc3[nH]nc(-c4nc5ccc(F)cc5[nH]4)c3c2)c1 [Cpd 106, ethyl-{5-[3-(6-fluoro-1H-benzoimidazol-2-yl)-1H-pyrazolo[3,4-b]pyridin-5-yl]-pyridin-3-ylmethyl}-amine] | 95.4 mm^3 | 94.7 mm^3 | 318.6 mm^3 | 558.3 mm^3 | 896.8 mm^3
7.4 nM |  |  | 3990 nM |  |  |  |  |  |  | CCCNCc1cncc(-c2cnc3[nH]nc(-c4nc5c(COC)cccc5[nH]4)c3c2)c1 [Cpd 78, {5-[3-(4-methoxymethyl-1H-benzoimidazol-2-yl)-1H-pyrazolo[3,4-b]pyridin-5-yl]-pyridin-3-ylmethyl}-propyl-amine] | 95.4 mm^3 | 113.6 mm^3 | 329.3 mm^3 | 558 mm^3 | 856.9 mm^3
1.1 nM | ~100 nM | 3600 nM | > 1000 nM | 138 nM | 46.1 nM | 94.7 nM |  |  |  | CCNCc1cncc(-c2cnc3[nH]nc(-c4nc5cc(F)c(F)cc5[nH]4)c3c2)c1 [Cpd 107, {5-[3-(5,6-difluoro-1H-benzoimidazol-2-yl)-1H-pyrazolo[3,4-b]pyridin-5-yl]-pyridin-3-ylmethyl}-ethyl-amine] | 95.4 mm^3 |  |  |  | 
3.05 nM | 25 nM | 1070 nM | 283 nM | 474 nM | 627 nM | 543 nM | 712 nM | 415 nM |  | CCNCc1cncc(-c2cnc3[nH]nc(-c4nc5cc(N6CCN(C)CC6)ccc5[nH]4)c3c2)c1 [Cpd 82, ethyl-(5-{3-[5-(4-methyl-piperazin-1-yl)-1H-benzoimidazol-2-yl]-1H-pyrazolo[3,4-b]pyridin-5-yl}-pyridin-3-ylmethyl)-amine] | 97.7 mm^3 | 222 mm^3 | 455.5 mm^3 | 742.4 mm^3 | 1323.6 mm^3
29.1 nM | 683 nM | > 10000 nM | 6580 nM | 180 nM | 166 nM | 131 nM | 836 nM | 132 nM | 2230 nM | COCc1cccc2[nH]c(-c3n[nH]c4ncc(-c5cncc(CNC(C)C)c5)cc34)nc12 [Cpd 43, isopropyl-{5-[3-(4-methoxymethyl-1H-benzoimidazol-2-yl)-1H-pyrazolo[3,4-b]pyridin-5-yl]-pyridin-3-ylmethyl}-amine] |  |  |  |  | 
875 nM | 2080 nM | > 100000 nM | > 10000 nM | > 10000 nM | 397 nM | 2310 nM | 211 nM | 192 nM | > 100000 nM | COCc1cccc2[nH]c(-c3n[nH]c4ncc(-c5cncc(CNC6CCN(C)CC6)c5)cc34)nc12 [Cpd 80, {5-[3-(4-methoxymethyl-1H-benzoimidazol-2-yl)-1H-pyrazolo[3,4-b]pyridin-5-yl]-pyridin-3-ylmethyl}-(1-methyl-piperidin-4-yl)-amine] |  |  |  |  | 

From patent US7541367B2, “3-benzoimidazolyl-pyrazolopyridines useful in treating kinase disorders” (Janssen Pharmaceutica, N.V., priority 2005, dated 2009)
